Test results from patent US12162893B2 (Erasca, Inc., priority 2020, dated 2024).

Target: T1, mutant G12C K-RAS (Homo sapiens, UniProt P01116, G12C)
T1 construct: made in house; host or cells: E. coli BL21
Experiment: covalent adduct formation (CAF) with mutant G12C K-RAS
Type: binding
Design: CAF: unit not given here
Conditions: Table 2, Pyrimidone Core-Morpholine Substituted; after 60 minutes at 10 micromolar
Procedure: Embodiments disclosed herein are further illustrated by the following examples in Tables 1-4 and the Examples hereinbelow. The Tables indicate the compound number, structure, the observed mass spectral molecular weight peak, and covalent adduct formation (CAF) with a mutant G12C K-RAS after 60 minutes at a concentration of 10 micromolar.

Row | % CAF (60 min) [%] | SMILES
1 | 84.7 | C=CC(=O)N1CCN(c2nc(=O)n3c4c(c(-c5c(O)cccc5F)c(Cl)cc24)OC[C@@H]3CO)[C@@H](C)C1 (single isomer, unassigned) [Example 25]

Same assay, conditions: Table 3, Pyridone Core-Morpholine Unsubstituted; after 60 minutes at 10 micromolar

Row | CAF | SMILES
2 | 1 | C=CC(=O)N1CCN(c2cc(=O)n3c4c(c(-c5c(O)cccc5F)ccc24)CCC3)CC1 [Example 45, 1-(4-acryloylpiperazin-1-yl)-8-(2-fluoro-6-hydroxyphenyl)-6,7-dihydropyrido[3,2,1-ij]quinolin-3(5H)-one]
3 | 0 | C=CC(=O)N1C[C@H](C)N(c2c(C#N)c(=O)n3c4c(c(-c5c(O)cccc5F)c(Cl)cc24)OCC3)C[C@H]1C [Example 43, (R)-7-((2S,5R)-4-acryloyl-2,5-dimethylpiperazin-1-yl)-9-chloro-10-(2-fluoro-6-hydroxyphenyl)-5-oxo-3,5-dihydro-2H-[1,4]oxazino[2,3,4-ij]quinoline-6-carbonitrile]

Same assay, conditions: Table 4, Pyridone Core-Morpholine Substituted; after 60 minutes at 10 micromolar

Row | % CAF (60 min) [%] | SMILES
4 | 0 | C=CC(=O)N1C[C@H](C)N(c2c(C#N)c(=O)n3c4c(c(-c5c(O)cccc5F)c(Cl)cc24)OC[C@@H]3CN(C)C)C[C@H]1C [Example 49, (3S)-7-((2S,5R)-4-acryloyl-2,5-dimethylpiperazin-1-yl)-9-chloro-3-((dimethylamino)methyl)-10-(2-fluoro-6-hydroxyphenyl)-5-oxo-3,5-dihydro-2H-[1,4]oxazino[2,3,4-ij]quinoline-6-carbonitrile]

Same assay, conditions: Table 5; 10 uM, 1 h

Row | % CAF @ 10 uM, 1 h [%] | SMILES
5 | 75.6 | C=CC(=O)N1CCN(c2nc(=O)n3c4c(c(-c5ccc(F)cc5F)c(Cl)cc24)SCC3)[C@H](CC#N)C1 [Example 117, 2-((2R)-4-acryloyl-1-(9-chloro-10-(2,4-difluorophenyl)-5-oxo-2,3-dihydro-5H-[1,4]thiazino[2,3,4-ij]quinazolin-7-yl)piperazin-2-yl)acetonitrile]

Same assay, conditions: Table 6; 10 μM, 1 h

Row | % CAF @ 10 μM,1 h [%] | SMILES
6 | 0 | C=CC(=O)N1CCN(c2nc(=O)n3c4c(c(-c5c(O)cccc5F)c(Cl)cc24)OC[C@H]3CN2CCOCC2)[C@@H](C)C1 [Example 199, (3R,10R)-7-((S)-4-acryloyl-2-methylpiperazin-1-yl)-9-chloro-10-(2-fluoro-6-hydroxyphenyl)-3-(morpholinomethyl)-2,3-dihydro-5H-[1,4]oxazino[2,3,4-ij]quinazolin-5-one]
7 | 85 | C=CC(=O)N1C[C@H](C)N(c2nc(=O)n3c4c(c(-c5c(O)cccc5F)c(Cl)cc24)OC[C@H]3CN2CCOCC2)C[C@H]1C (atropisomer, axis not shown) [Example 209, (3R,10S)-7-((2S,5R)-4-acryloyl-2,5-dimethylpiperazin-1-yl)-9-chloro-10-(2-fluoro-6-hydroxyphenyl)-3-(morpholinomethyl)-2,3-dihydro-5H-[1,4]oxazino[2,3,4-ij]quinazolin-5-one]
8 | 91.6 | C=CC(=O)N1C[C@H](C)N(c2nc(=O)n3c4c(c(-c5ccc(F)cc5F)c(Cl)cc24)OC[C@H]3COC[C@H]2CCCN2C)C[C@H]1C [Example 287, (3R)-7-((2S,5R)-4-acryloyl-2,5-dimethylpiperazin-1-yl)-9-chloro-10-(2,4-difluorophenyl)-3-((((R)-1-methylpyrrolidin-2-yl)methoxy)methyl)-2H-[1,4]oxazino[2,3,4-ij]quinazolin-5(3H)-one]
9 | 13.6 | C=CC(=O)N1C[C@H](C)N(c2nc(=O)n3c4c(c(-c5ccc(F)cc5F)c(Cl)cc24)OC[C@H]3Cn2ccnc2)C[C@H]1C [Example 267, (3R)-3-((1H-imidazol-1-yl)methyl)-7-((2S,5R)-4-acryloyl-2,5-dimethylpiperazin-1-yl)-9-chloro-10-(2,4-difluorophenyl)-2H-[1,4]oxazino[2,3,4-ij]quinazolin-5(3H)-one]
10 | 63.1 | C=CC(=O)N1C[C@H](C)N(c2nc(=O)n3c4c(c(-c5c(O)cccc5F)c(Cl)cc24)OC[C@H]3CN(C)CC(F)(F)F)C[C@H]1C (atropisomer, axis not shown) [Example 242, (3R,10S)-7-((2S,5R)-4-acryloyl-2,5-dimethylpiperazin-1-yl)-9-chloro-10-(2-fluoro-6-hydroxyphenyl)-3-((methyl(2,2,2-trifluoroethyl)amino)methyl)-2H-[1,4]oxazino[2,3,4-ij]quinazolin-5(3H)-one]
11 | 0 | C=CC(=O)N1CCN(c2nc(=O)n3c4c(c(-c5c(O)cccc5F)c(Cl)cc24)OC[C@@H]3CN2CCOCC2)[C@@H](C)C1 [Example 195, (3S,10R)-7-((S)-4-acryloyl-2-methylpiperazin-1-yl)-9-chloro-10-(2-fluoro-6-hydroxyphenyl)-3-(morpholinomethyl)-2,3-dihydro-5H-[1,4]oxazino[2,3,4-ij]quinazolin-5-one]
12 | 17.7 | C=CC(=O)N1C[C@H](C)N(c2nc(=O)n3c4c(c(-c5ccc(F)cc5F)c(Cl)cc24)O[C@@H](CCCN2CCOCC2)C3)C[C@H]1C [Example 258, (2S)-7-((2S,5R)-4-acryloyl-2,5-dimethylpiperazin-1-yl)-9-chloro-10-(2,4-difluorophenyl)-2-(3-morpholinopropyl)-2,3-dihydro-5H-[1,4]oxazino[2,3,4-ij]quinazolin-5-one]
13 | 56.9 | C=CC(=O)N1C[C@H](C)N(c2nc(=O)n3c4c(c(-c5ccc(F)cc5F)c(C#N)cc24)OC[C@H]3CCCN2C[C@@H]3C[C@H]2CO3)C[C@H]1C [Example 332, (3R)-3-(3-((1S,4S)-2-oxa-5-azabicyclo[2.2.1]heptan-5-yl)propyl)-7-((2S,5R)-4-acryloyl-2,5-dimethylpiperazin-1-yl)-10-(2,4-difluorophenyl)-5-oxo-2,3-dihydro-5H-[1,4]oxazino[2,3,4-ij]quinazoline-9-carbonitrile]
14 | 42.2 | C=CC(=O)N1C[C@H](C)N(c2nc(=O)n3c4c(c(-c5ccc(F)cc5F)c(Cl)cc24)O[C@@H](CCCO)C3)C[C@H]1C [Example 247, (2S)-7-((2S,5R)-4-acryloyl-2,5-dimethylpiperazin-1-yl)-9-chloro-10-(2,4-difluorophenyl)-2-(3-hydroxypropyl)-2,3-dihydro-5H-[1,4]oxazino[2,3,4-ij]quinazolin-5-one]
15 | 75.4 | C=CC(=O)N1C[C@H](C)N(c2nc(=O)n3c4c(c(-c5ccc(F)cc5F)c(Cl)cc24)OC[C@H]3CCCN2CC3(COC3)C2)C[C@H]1C [Example 299, (3R)-3-(3-(2-oxa-6-azaspiro[3.3]heptan-6-yl)propyl)-7-((2S,5R)-4-acryloyl-2,5-dimethylpiperazin-1-yl)-9-chloro-10-(2,4-difluorophenyl)-2,3-dihydro-5H-[1,4]oxazino[2,3,4-ij]quinazolin-5-one]
16 | 78.5 | C=CC(=O)N1C[C@H](C)N(c2nc(=O)n3c4c(c(-c5ccc(F)cc5F)c(Cl)cc24)OC[C@@H]3CN(C)CC(F)(F)F)C[C@H]1C [Example 237, (3S)-7-((2S,5R)-4-acryloyl-2,5-dimethylpiperazin-1-yl)-9-chloro-10-(2,4-difluorophenyl)-3-((methyl(2,2,2-trifluoroethyl)amino)methyl)-2H-[1,4]oxazino[2,3,4-ij]quinazolin-5(3H)-one]

Row | SMILES | % CAF @ 10 μM,1 h [%]
17 | C=CC(=O)N1C[C@H](C)N(c2nc(=O)n3c4c(c(-c5ccc(F)cc5F)c(Cl)cc24)OC[C@@H]3CN2C[C@H]3CC[C@@H](C2)N3C2COC2)C[C@H]1C [Example 290, (3S)-7-((2S,5R)-4-acryloyl-2,5-dimethylpiperazin-1-yl)-9-chloro-10-(2,4-difluorophenyl)-3-(((1R,5S)-8-(oxetan-3-yl)-3,8-diazabicyclo[3.2.1]octan-3-yl)methyl)-2H-[1,4]oxazino[2,3,4-ij]quinazolin-5(3H)-one] | 92.6
